Results taken from ChEMBL document CHEMBL3045962, “Synthesis and antitumor evaluation of some novel pyrrolizine derivatives” (Med Chem Res, 2012).

Test system: MCF7
Experiment: Cytotoxicity against Homo sapiens (human) MCF7 cells after 48 hr by neutral red assay
Format: functional, cell-based

With `CC1=NC2C(=C3CCCN3C2(O)N2CCOCC2)C(=O)N1` (stereo not drawn) the IC50 was 36 µM.
`O=C1NC(c2ccccc2)=NC2C1=C1CCCN1C2(O)N1CCOCC1` (stereo not drawn) showed an IC50 of 16 µM.
For `CC(=O)CC(=O)NC1C(C#N)=C2CCCN2C1(O)N1CCOCC1` (stereo not drawn), the IC50 was 22 µM.
`CC(=O)C1=C(N)C2=C3CCCN3C(O)(N3CCOCC3)C2NC1=O` (stereo not drawn) was tested, and the IC50 was 29 µM.
With `O=C1NC=NC2C1=C1CCCN1C2(O)N1CCOCC1` (stereo not drawn) the IC50 was 30 µM.
In the case of `CCOC=NC1C(C#N)=C2CCCN2C1(O)N1CCOCC1` (stereo not drawn), the IC50 was 41 µM.
In the case of `N#CC1=C2CCCN2C(O)(N2CCOCC2)C1/N=C/NNC(=O)c1ccncc1` (stereo not drawn), the IC50 was 29 µM.
Compound `N#CC1=C2CCCN2C(O)(N2CCOCC2)C1/N=C/NNC(=O)c1ccccc1` (stereo not drawn) has an IC50 of 18 µM.
`O=C1NC(NNC(=O)c2ccncc2)=NC2C1=C1CCCN1C2(O)N1CCOCC1` (stereo not drawn) was tested, and the IC50 was 20 µM.
`O=C1NC(NNC(=O)c2ccccc2)=NC2C1=C1CCCN1C2(O)N1CCOCC1` (stereo not drawn) gave an IC50 of 19 µM.
For `NC1=NC=NC2C1=C1CCCN1C2(O)N1CCOCC1` (stereo not drawn), the IC50 was 35 µM.
Work on `CC(=O)NC1=NC=NC2C1=C1CCCN1C2(O)N1CCOCC1` (stereo not drawn) yielded an IC50 of 29 µM.
For `O=C(NC1=NC=NC2C1=C1CCCN1C2(O)N1CCOCC1)c1ccccc1` (stereo not drawn), the IC50 was 21 µM.
`O=C(CCl)NC1=NC=NC2C1=C1CCCN1C2(O)N1CCOCC1` (stereo not drawn) was tested, and the IC50 was 23 µM.
With `CCOC(=O)NC1=NC=NC2C1=C1CCCN1C2(O)N1CCOCC1` (stereo not drawn) the IC50 was 25 µM.
Work on `N#CC1=C2CCCN2C(O)(N2CCOCC2)C1/N=C/N` (stereo not drawn) yielded an IC50 of 26 µM.
In the case of `CC(=O)C/C(C)=N/C1C(C#N)=C2CCCN2C1(O)N1CCOCC1` (stereo not drawn), the IC50 was 42 µM.
Compound `C/C(CC(=O)c1ccccc1)=N\C1C(C#N)=C2CCCN2C1(O)N1CCOCC1` (stereo not drawn) has an IC50 of 28 µM.
Compound `CC(=O)C1=C(N)C2=C3CCCN3C(O)(N3CCOCC3)C2N=C1C` (stereo not drawn) has an IC50 of 38 µM.
With `N=C1C2=C3CCCN3C(O)(N3CCOCC3)C2NC(=O)N1c1ccccc1` (stereo not drawn) the IC50 was 18 µM.
In the case of `N=C1C2=C3CCCN3C(O)(N3CCOCC3)C2NC(=O)N1c1ccc(Cl)cc1` (stereo not drawn), the IC50 was 37 µM.
For `CC(=O)NC1C(C#N)=C2CCCN2C1(O)N1CCOCC1` (stereo not drawn), the IC50 was 29 µM.
Compound `N#CC1=C2CCCN2C(O)(N2CCOCC2)C1NC(=O)c1ccccc1` (stereo not drawn) has an IC50 of 34 µM.
With `N#CC1=C2CCCN2C(O)(N2CCOCC2)C1NC(=O)CCl` (stereo not drawn) the IC50 was 23 µM.
For `CCOC(=O)NC1C(C#N)=C2CCCN2C1(O)N1CCOCC1` (stereo not drawn), the IC50 was 27 µM.
For `N#CC1=C2CCCN2C(O)(N2CCOCC2)C1N` (stereo not drawn), the IC50 was 35 µM.
In the case of `N#CC1=C2CCCN2C(O)(N2CCOCC2)C1/N=C/c1ccc(Cl)cc1` (stereo not drawn), the IC50 was 45 µM.
`N#CC1=C2CCCN2C(O)(N2CCOCC2)C1/N=C/c1ccc([N+](=O)[O-])cc1` (stereo not drawn) was tested, and the IC50 was 19 µM.
Work on `COc1ccc(/C=N/C2C(C#N)=C3CCCN3C2(O)N2CCOCC2)cc1` (stereo not drawn) yielded an IC50 of 16 µM.
`CN(C)c1ccc(/C=N/C2C(C#N)=C3CCCN3C2(O)N2CCOCC2)cc1` (stereo not drawn) was tested, and the IC50 was 37 µM.
With `N#CC1=C2CCCN2C(O)(N2CCOCC2)C1N1C(=O)CSC1c1ccc(Cl)cc1` (stereo not drawn) the IC50 was 18 µM.
`N#CC1=C2CCCN2C(O)(N2CCOCC2)C1N1C(=O)CSC1c1ccc([N+](=O)[O-])cc1` (stereo not drawn) was tested, and the IC50 was 55 µM.
For `COc1ccc(C2SCC(=O)N2C2C(C#N)=C3CCCN3C2(O)N2CCOCC2)cc1` (stereo not drawn), the IC50 was 35 µM.
`CN(C)c1ccc(C2SCC(=O)N2C2C(C#N)=C3CCCN3C2(O)N2CCOCC2)cc1` (stereo not drawn) was tested, and the IC50 was 19 µM.
`CCNC(=S)NC1C(C#N)=C2CCCN2C1(O)N1CCOCC1` (stereo not drawn) showed an IC50 of 37 µM.
`N#CC1=C2CCCN2C(O)(N2CCOCC2)C1NC(=O)Nc1ccccc1` (stereo not drawn) gave an IC50 of 44 µM.
`CCN1C(=N)C2=C3CCCN3C(O)(N3CCOCC3)C2NC1=S` (stereo not drawn) gave an IC50 of 34 µM.
`COc1cccc2c1C(=O)c1c(O)c3c(c(O)c1C2=O)C[C@@](O)(C(=O)CO)C[C@@H]3O[C@H]1C[C@H](N)[C@H](O)[C@H](C)O1` [DOXORUBICIN] gave an IC50 of 63 µM.
